From patent publication US20200093807A1, “NEW USE OF RIFAMYCIN-NITROIMIDAZOLE CONJUGATE MOLECULE” (TenNor Therapeutics Limited, priority 2017, published 2020)
Values after ≈ are worked out from the molar mass of the structure shown. Like-named read-outs stand apart in the source and are kept apart here.

Tests used:
[1] = test system: Actinomyces naeslundii ATCC 12104; experiment: MIC, anaerobic agar dilution (CLSI); type: cell-based; settings: ATCC12104, 35° C., 42-48 hours
[2] = test system: Anaerococcus (Anaerococcus(prevotii)) ATCC 9321; experiment: MIC, anaerobic agar dilution (CLSI); type: cell-based; settings: 35° C., 42-48 hours
[3] = test system: Atopobium vaginae BAA-55; experiment: MIC, anaerobic agar dilution (CLSI); type: cell-based; settings: Fannyhessea vaginae, BAA55; Atopobium vaginae BAA-55; anaerobic, 35° C., 42-48 hours; read-out: MIC
[4] = test system: Bacteroides fragilis (QC) ATCC 25285; experiment: MIC, anaerobic agar dilution (CLSI); type: cell-based; settings: ATCC25285, 35° C., 42-48 hours
[5] = test system: Bacteroides fragilis (MET^R) MMX 3387; experiment: MIC, anaerobic agar dilution (CLSI); type: cell-based; settings: Bacteroides fragilis (MET^R) MMX 3387; anaerobic, 35° C., 42-48 hours; read-out: MIC
[6] = test system: Bacteroides thetaiotaomicron (MET^R) MMX 3409; experiment: microbe, parasite or virus in culture; type: cell-based
[7] = test system: Bacteroides gracilis ATCC 33236; experiment: MIC, anaerobic agar dilution (CLSI); type: cell-based; settings: Campylobacter gracilis, ATCC33236; Bacteroides gracilis ATCC 33236; anaerobic, 35° C., 42-48 hours; read-out: MIC
[8] = test system: Bacteroides uniformis MMX 1277; experiment: MIC, anaerobic agar dilution (CLSI); type: cell-based; settings: MMX1277; Bacteroides uniformis MMX 1277; anaerobic, 35° C., 42-48 hours; read-out: MIC
[9] = test system: Bacteroides vulgatus MMX 8348; experiment: MIC, anaerobic agar dilution (CLSI); type: cell-based; settings: Phocaeicola vulgatus, MMX8348, 35° C., 42-48 hours
[10] = test system: Bacteroides vulgatus (MET^R) MMX 3490; experiment: MIC, anaerobic agar dilution (CLSI); type: cell-based; settings: Phocaeicola vulgatus; Bacteroides vulgatus (MET^R) MMX 3490; anaerobic, 35° C., 42-48 hours; read-out: MIC
[11] = test system: Bacteroides ovatus (MET^R) MMX 3504; experiment: MIC, anaerobic agar dilution (CLSI); type: cell-based; settings: 35° C., 42-48 hours
[12] = test system: Bifidobacterium (breve) ATCC 15698; experiment: MIC, anaerobic agar dilution (CLSI); type: cell-based; settings: ATCC15698, 35° C., 42-48 hours
[13] = test system: Bifidobacterium longum ATCC 15707; experiment: MIC, anaerobic agar dilution (CLSI); type: cell-based; settings: ATCC15707, 35° C., 42-48 hours
[14] = test system: Clostridium sporogenes ATCC 19404; experiment: MIC, anaerobic agar dilution (CLSI); type: cell-based; settings: ATCC19404, 35° C., 42-48 hours
[15] = test system: Clostridium perfringens (MET^R) MMX 3521; experiment: microbe, parasite or virus in culture; type: cell-based
[16] = test system: Eubacterium (rectale) ATCC 33656; experiment: MIC, anaerobic agar dilution (CLSI); type: cell-based; settings: Agathobacter rectalis, ATCC33656, 35° C., 42-48 hours
[17] = test system: Fusobacterium nucleatum ATCC 10953; experiment: MIC, anaerobic agar dilution (CLSI); type: cell-based; settings: ATCC10953, 35° C., 42-48 hours
[18] = test system: Fusobacterium nucleatum ATCC 25586; experiment: MIC, anaerobic agar dilution (CLSI); type: cell-based; settings: ATCC25586, 35° C., 42-48 hours
[19] = test system: Gardnerella vaginalis ATCC 14018; experiment: MIC, anaerobic agar dilution (CLSI); type: cell-based; settings: ATCC14018, 35° C., 42-48 hours
[20] = test system: Gardnerella vaginalis ATCC 49145; experiment: MIC, anaerobic agar dilution (CLSI); type: cell-based; settings: ATCC49145, 35° C., 42-48 hours
[21] = test system: Lactobacillus crispatus ATCC 33820; experiment: MIC, anaerobic agar dilution (CLSI); type: cell-based; settings: ATCC33820; Lactobacillus crispatus ATCC 33820; anaerobic, 35° C., 42-48 hours; read-out: MIC
[22] = test system: Lactobacillus gasseri ATCC 33323; experiment: MIC, anaerobic agar dilution (CLSI); type: cell-based; settings: ATCC33323; Lactobacillus gasseri ATCC 33323; anaerobic, 35° C., 42-48 hours; read-out: MIC
[23] = test system: Lactobacillus jensenii ATCC 25258; experiment: MIC, anaerobic agar dilution (CLSI); type: cell-based; settings: ATCC25258; Lactobacillus jensenii ATCC 25258; anaerobic, 35° C., 42-48 hours; read-out: MIC
[24] = test system: Mobiluncus (curtisii subsp. curtisii) ATCC 35241; experiment: MIC, anaerobic agar dilution (CLSI); type: cell-based; settings: ATCC35241, 35° C., 42-48 hours
[25] = test system: Mobiluncus (mulieris) ATCC 35243; experiment: MIC, anaerobic agar dilution (CLSI); type: cell-based; settings: ATCC35243, 35° C., 42-48 hours
[26] = test system: Peptococcus (niger) ATCC 27731; experiment: MIC, anaerobic agar dilution (CLSI); type: cell-based; settings: ATCC27731, 35° C., 42-48 hours
[27] = test system: Peptoniphilus asaccharolyticus ATCC 29743; experiment: MIC, anaerobic agar dilution (CLSI); type: cell-based; settings: ATCC29743, 35° C., 42-48 hours
[28] = test system: Peptostreptococcus (magnus) ATCC 14956; experiment: MIC, anaerobic agar dilution (CLSI); type: cell-based; settings: Finegoldia magna, ATCC14956, 35° C., 42-48 hours
[29] = test system: Peptostreptococcus anaerobius ATCC 27337; experiment: MIC, anaerobic agar dilution (CLSI); type: cell-based; settings: ATCC27337, 35° C., 42-48 hours
[30] = test system: Prevotella asaccharolytica (MET^R) MMX 3552; experiment: MIC, anaerobic agar dilution (CLSI); type: cell-based; settings: 35° C., 42-48 hours
[31] = test system: Prevotella bivia ATCC 29303; experiment: MIC, anaerobic agar dilution (CLSI); type: cell-based; settings: ATCC29303, 35° C., 42-48 hours
[32] = test system: Prevotella bivia MMX 3450; experiment: MIC, anaerobic agar dilution (CLSI); type: cell-based; settings: MMX3450, 35° C., 42-48 hours
[33] = test system: Prevotella bivia (MET^R) MMX 3454; experiment: MIC, anaerobic agar dilution (CLSI); type: cell-based; settings: 35° C., 42-48 hours
[34] = test system: Prevotella disiens MMX 3457; experiment: MIC, anaerobic agar dilution (CLSI); type: cell-based; settings: MMX3457, 35° C., 42-48 hours
[35] = test system: Prevotella disiens MMX 3446; experiment: MIC, anaerobic agar dilution (CLSI); type: cell-based; settings: MMX3446, 35° C., 42-48 hours
[36] = test system: Prevotella intermedia ATCC 25611; experiment: MIC, anaerobic agar dilution (CLSI); type: cell-based; settings: ATCC25611, 35° C., 42-48 hours
[37] = test system: Treponema denticola ATCC 35405; experiment: MIC, anaerobic agar dilution (CLSI); type: cell-based; settings: ATCC35405, 35° C., 42-48 hours
[38] = test system: Veionella parvula ATCC 17745; experiment: MIC, anaerobic agar dilution (CLSI); type: cell-based; settings: 35° C., 42-48 hours
[39] = test system: Gardnerella; experiment: MIC, agar dilution, Gardnerella; type: cell-based; settings: Gardnerella as major BV bacteria
[40] = test system: Escherichia coli; settings: several bacteria such as Escherichia coli; U.S. Pat. No. 7,678,791 B2; cited from earlier work

Row | SMILES | MIC [1] | MIC [2] | MIC [3] | MIC [4] | MIC [5] | MIC [7] | MIC [8] | MIC [9] | MIC [10] | MIC [11] | MIC [12] | MIC [13] | MIC [14] | MIC [15] | MIC [16] | MIC [17] | MIC [18] | MIC [19] | MIC [20] | MIC [21] | further results
1 | CO[C@H]1/C=C/O[C@@]2(C)Oc3c(C)c(O)c4c(c3C2=O)C2=NC3(CCN(CCn5c([N+](=O)[O-])cnc5C)CC3)NC2=C(NC(=O)/C(C)=C\C=C\[C@H](C)[C@H](O)[C@@H](C)[C@@H](O)[C@@H](C)[C@H](OC(C)=O)[C@@H]1C)C4=O [Compound I, 4-deoxy-3,4-[2-spiro-[2-(2-methyl-5-nitro-imidazole-1-yl)ethyl]-piperidine-4-yl]-(1-hydrogen)-imidazo-(2,5-dihydro) rifamycin S] | 0.001 µg/mL (≈ 0.00106 µM) | 0.0005 µg/mL (≈ 0.00053 µM) | 0.03 µg/mL (≈ 0.0318 µM) | 0.03 µg/mL (≈ 0.0318 µM) | 0.015 µg/mL (≈ 0.0159 µM) | 0.5 µg/mL (≈ 0.53 µM) | 0.03 µg/mL (≈ 0.0318 µM) | 0.03 µg/mL (≈ 0.0318 µM) | 0.03 µg/mL (≈ 0.0318 µM) | 0.12 µg/mL (≈ 0.127 µM) | 0.015 µg/mL (≈ 0.0159 µM) | 0.015 µg/mL (≈ 0.0159 µM) | 0.015 µg/mL (≈ 0.0159 µM) | 2 µg/mL (≈ 2.12 µM) | 0.0005 µg/mL (≈ 0.00053 µM) | 0.12 µg/mL (≈ 0.127 µM) | 0.001 µg/mL (≈ 0.00106 µM) | 0.004 µg/mL (≈ 0.00424 µM) | 0.004 µg/mL (≈ 0.00424 µM) | 4 µg/mL (≈ 4.24 µM) | MIC ([6]; Bacteroides thetaiotaomicron (MET^R) MMX 3409, anaerobic, 35° C., 42-48 hours, read-out: MIC): 0.03 µg/mL (≈ 0.0318 µM); MIC [22]: 0.015 µg/mL (≈ 0.0159 µM); MIC [23]: 0.008 µg/mL (≈ 0.00847 µM); MIC [24]: 0.002 µg/mL (≈ 0.00212 µM); MIC [25]: 0.001 µg/mL (≈ 0.00106 µM); MIC [26]: 0.0005 µg/mL (≈ 0.00053 µM); MIC [27]: 0.008 µg/mL (≈ 0.00847 µM); MIC [28]: 0.0005 µg/mL (≈ 0.00053 µM); MIC [29]: 0.002 µg/mL (≈ 0.00212 µM); MIC [30]: 0.008 µg/mL (≈ 0.00847 µM); MIC [31]: 0.015 µg/mL (≈ 0.0159 µM); MIC [32]: 0.0005 µg/mL (≈ 0.00053 µM); MIC [33]: 0.015 µg/mL (≈ 0.0159 µM); MIC [34]: 0.008 µg/mL (≈ 0.00847 µM); MIC [35]: 0.015 µg/mL (≈ 0.0159 µM); MIC [36]: 0.0005 µg/mL (≈ 0.00053 µM); MIC [37]: 0.002 µg/mL (≈ 0.00212 µM); MIC [38]: 2 µg/mL (≈ 2.12 µM); MIC [39]: 0.004 µg/mL (≈ 0.00424 µM); antimicrobial activity [40]: has antimicrobial activity
2 | CO[C@H]1/C=C/O[C@@]2(C)Oc3c(C)c(O)c4c(O)c(c(/C=N/N5CCN(C)CC5)c(O)c4c3C2=O)NC(=O)/C(C)=C\C=C\[C@H](C)[C@H](O)[C@@H](C)[C@@H](O)[C@@H](C)[C@H](OC(C)=O)[C@@H]1C [Rifampicin] | 0.03 µg/mL (≈ 0.0365 µM) | 0.03 µg/mL (≈ 0.0365 µM) | 0.25 µg/mL (≈ 0.304 µM) | 0.25 µg/mL (≈ 0.304 µM) | 0.25 µg/mL (≈ 0.304 µM) | 16 µg/mL (≈ 19.4 µM) | 0.5 µg/mL (≈ 0.608 µM) | 0.25 µg/mL (≈ 0.304 µM) | 0.25 µg/mL (≈ 0.304 µM) | 1 µg/mL (≈ 1.22 µM) | 0.25 µg/mL (≈ 0.304 µM) | 0.5 µg/mL (≈ 0.608 µM) | 1 µg/mL (≈ 1.22 µM) | 1 µg/mL (≈ 1.22 µM) | 0.015 µg/mL (≈ 0.0182 µM) | 1 µg/mL (≈ 1.22 µM) | 0.5 µg/mL (≈ 0.608 µM) | 0.5 µg/mL (≈ 0.608 µM) | 0.5 µg/mL (≈ 0.608 µM) | 2 µg/mL (≈ 2.43 µM) | MIC ([6]; Bacteroides thetaiotaomicron): 0.5 µg/mL (≈ 0.608 µM); MIC [22]: 0.25 µg/mL (≈ 0.304 µM); MIC [23]: 0.5 µg/mL (≈ 0.608 µM); MIC [24]: 0.004 µg/mL (≈ 0.00486 µM); MIC [25]: 0.004 µg/mL (≈ 0.00486 µM); MIC [26]: 0.004 µg/mL (≈ 0.00486 µM); MIC [27]: 0.004 µg/mL (≈ 0.00486 µM); MIC [28]: 1 µg/mL (≈ 1.22 µM); MIC [29]: 0.004 µg/mL (≈ 0.00486 µM); MIC [30]: 0.004 µg/mL (≈ 0.00486 µM); MIC [31]: 0.5 µg/mL (≈ 0.608 µM); MIC [32]: 0.06 µg/mL (≈ 0.0729 µM); MIC [33]: 0.004 µg/mL (≈ 0.00486 µM); MIC [34]: 0.5 µg/mL (≈ 0.608 µM); MIC [35]: 0.12 µg/mL (≈ 0.146 µM); MIC [36]: 0.12 µg/mL (≈ 0.146 µM); MIC [37]: 0.004 µg/mL (≈ 0.00486 µM); MIC [38]: 4 µg/mL (≈ 4.86 µM); MIC [39]: 0.5 µg/mL (≈ 0.608 µM)
